DC50 and Dmax data for four compounds are collected here from patent US20260306638A1, “COMPOUNDS AND USES THEREOF” (FOGHORN THERAPEUTICS INC., priority 2023, published 2026).

The target in one test is T1, HiBit-BRM fusion protein (Homo sapiens, UniProt P51531).
T1 construct: HiBiT; expressed in transfected cells
The test is described as follows: HiBiT-BRM degradation in a stable HeLa cell line (cell-based degradation assay, Nano-Glo HiBiT Lytic Detection). The conditions noted are these: HeLa cells, 24 h; for Dmax: human, 30 μM top dose, read-out: BRM HiBit Degradation Maximum. The method, then: (§1) Procedure: A stable HeLa cell line expressing HiBiT-BRM was generated. On day 0, 5000 cells were seeded in 40 μL of media into each well of 384-well cell culture plates. On day 1, cells were treated with 120 nL DMSO or 120 nL of 3-fold serially DMSO-diluted compounds (10 points in duplicate with 30 µM as final top dose). Subsequently plates were incubated for 24 h in a standard tissue culture incubator and equilibrated at room temperature for 15 minutes. Nano-Glo HiBiT Lytic Detection System (Promega N3050) reagent was freshly prepared and 20 μl was added to each well. Upon addition of this LgBit-containing reagent, the HiBIT and LgBiT proteins associate to form the luminescent NanoBiT luciferase. The plates were shaken for 10 minutes at room temperature and the bioluminescence read using an En Vision plate reader (PerkinElmer).
(§2) The degradation % was calculated using the following formula: % degradation=100%−100%×(Lumsample−LumLC)/(LumHC−LumLC). DMSO treated cells are employed as High Control (HC) and 2 μM of a known BRM/BRG1 degrader standard treated cells are employed as Low Control (LC).

In test [1] the target is T2, HiBit-BRG1 fusion protein (Homo sapiens, UniProt P51532).
T2 construct: HiBiT; expressed in transfected cells
The test is described as follows: HiBit-BRG1 degradation in a stable HeLa cell line expressing HiBit-BRG1 and LgBit (cell-based degradation assay). The conditions noted are these: HeLa cells, 24 h; for Dmax: human, 30 μM top dose, read-out: BRG1 HiBit Degradation Maximum. The procedure: as §1
For measurement of BRG1 degradation, a stable HeLa cell line expressing HiBit-BRG1 and LgBit was generated. The same protocol as above was then followed.
as §2

SMILES strings stand for the structures.

T1 sequence (P51531 whole entry, the tested form may be a part): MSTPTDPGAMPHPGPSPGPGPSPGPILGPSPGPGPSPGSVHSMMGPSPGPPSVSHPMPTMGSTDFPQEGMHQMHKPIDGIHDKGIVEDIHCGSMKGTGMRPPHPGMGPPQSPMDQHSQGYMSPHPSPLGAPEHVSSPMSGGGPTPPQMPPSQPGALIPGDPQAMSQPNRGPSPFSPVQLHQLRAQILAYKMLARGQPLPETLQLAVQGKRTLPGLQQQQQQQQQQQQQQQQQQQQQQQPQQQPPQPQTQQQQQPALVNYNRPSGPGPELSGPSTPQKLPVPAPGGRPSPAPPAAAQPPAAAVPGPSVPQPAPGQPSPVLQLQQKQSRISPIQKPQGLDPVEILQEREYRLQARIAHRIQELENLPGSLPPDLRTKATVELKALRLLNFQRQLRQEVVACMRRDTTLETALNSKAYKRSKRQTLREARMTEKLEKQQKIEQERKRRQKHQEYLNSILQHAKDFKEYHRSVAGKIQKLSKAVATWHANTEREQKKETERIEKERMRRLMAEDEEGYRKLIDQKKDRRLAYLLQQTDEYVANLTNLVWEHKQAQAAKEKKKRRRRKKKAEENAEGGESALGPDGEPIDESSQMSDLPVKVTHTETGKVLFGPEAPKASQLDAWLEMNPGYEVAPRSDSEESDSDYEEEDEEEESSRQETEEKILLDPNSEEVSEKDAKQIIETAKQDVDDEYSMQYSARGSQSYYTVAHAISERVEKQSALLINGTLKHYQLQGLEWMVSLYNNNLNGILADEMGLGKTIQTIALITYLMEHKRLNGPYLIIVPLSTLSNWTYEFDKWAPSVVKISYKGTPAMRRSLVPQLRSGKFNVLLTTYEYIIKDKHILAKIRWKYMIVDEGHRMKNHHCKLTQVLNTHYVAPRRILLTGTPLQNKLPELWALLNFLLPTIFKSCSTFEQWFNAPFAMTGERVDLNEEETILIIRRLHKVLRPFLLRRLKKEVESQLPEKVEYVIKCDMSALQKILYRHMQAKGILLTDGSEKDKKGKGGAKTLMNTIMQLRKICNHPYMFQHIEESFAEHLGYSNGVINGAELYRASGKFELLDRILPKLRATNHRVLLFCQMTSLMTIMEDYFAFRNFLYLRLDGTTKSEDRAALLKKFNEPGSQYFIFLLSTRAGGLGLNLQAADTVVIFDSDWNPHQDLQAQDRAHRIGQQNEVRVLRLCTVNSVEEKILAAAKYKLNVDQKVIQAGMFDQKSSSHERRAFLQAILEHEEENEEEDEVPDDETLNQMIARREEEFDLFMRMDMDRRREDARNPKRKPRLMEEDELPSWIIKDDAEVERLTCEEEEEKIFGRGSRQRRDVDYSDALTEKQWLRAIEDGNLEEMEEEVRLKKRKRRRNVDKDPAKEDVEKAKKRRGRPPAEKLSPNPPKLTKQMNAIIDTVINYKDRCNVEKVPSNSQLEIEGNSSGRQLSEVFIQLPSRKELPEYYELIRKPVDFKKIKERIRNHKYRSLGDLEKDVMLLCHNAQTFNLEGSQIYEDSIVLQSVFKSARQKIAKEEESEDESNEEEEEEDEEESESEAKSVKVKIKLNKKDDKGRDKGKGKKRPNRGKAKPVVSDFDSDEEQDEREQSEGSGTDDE
T2 sequence (P51532 whole entry, the tested form may be a part): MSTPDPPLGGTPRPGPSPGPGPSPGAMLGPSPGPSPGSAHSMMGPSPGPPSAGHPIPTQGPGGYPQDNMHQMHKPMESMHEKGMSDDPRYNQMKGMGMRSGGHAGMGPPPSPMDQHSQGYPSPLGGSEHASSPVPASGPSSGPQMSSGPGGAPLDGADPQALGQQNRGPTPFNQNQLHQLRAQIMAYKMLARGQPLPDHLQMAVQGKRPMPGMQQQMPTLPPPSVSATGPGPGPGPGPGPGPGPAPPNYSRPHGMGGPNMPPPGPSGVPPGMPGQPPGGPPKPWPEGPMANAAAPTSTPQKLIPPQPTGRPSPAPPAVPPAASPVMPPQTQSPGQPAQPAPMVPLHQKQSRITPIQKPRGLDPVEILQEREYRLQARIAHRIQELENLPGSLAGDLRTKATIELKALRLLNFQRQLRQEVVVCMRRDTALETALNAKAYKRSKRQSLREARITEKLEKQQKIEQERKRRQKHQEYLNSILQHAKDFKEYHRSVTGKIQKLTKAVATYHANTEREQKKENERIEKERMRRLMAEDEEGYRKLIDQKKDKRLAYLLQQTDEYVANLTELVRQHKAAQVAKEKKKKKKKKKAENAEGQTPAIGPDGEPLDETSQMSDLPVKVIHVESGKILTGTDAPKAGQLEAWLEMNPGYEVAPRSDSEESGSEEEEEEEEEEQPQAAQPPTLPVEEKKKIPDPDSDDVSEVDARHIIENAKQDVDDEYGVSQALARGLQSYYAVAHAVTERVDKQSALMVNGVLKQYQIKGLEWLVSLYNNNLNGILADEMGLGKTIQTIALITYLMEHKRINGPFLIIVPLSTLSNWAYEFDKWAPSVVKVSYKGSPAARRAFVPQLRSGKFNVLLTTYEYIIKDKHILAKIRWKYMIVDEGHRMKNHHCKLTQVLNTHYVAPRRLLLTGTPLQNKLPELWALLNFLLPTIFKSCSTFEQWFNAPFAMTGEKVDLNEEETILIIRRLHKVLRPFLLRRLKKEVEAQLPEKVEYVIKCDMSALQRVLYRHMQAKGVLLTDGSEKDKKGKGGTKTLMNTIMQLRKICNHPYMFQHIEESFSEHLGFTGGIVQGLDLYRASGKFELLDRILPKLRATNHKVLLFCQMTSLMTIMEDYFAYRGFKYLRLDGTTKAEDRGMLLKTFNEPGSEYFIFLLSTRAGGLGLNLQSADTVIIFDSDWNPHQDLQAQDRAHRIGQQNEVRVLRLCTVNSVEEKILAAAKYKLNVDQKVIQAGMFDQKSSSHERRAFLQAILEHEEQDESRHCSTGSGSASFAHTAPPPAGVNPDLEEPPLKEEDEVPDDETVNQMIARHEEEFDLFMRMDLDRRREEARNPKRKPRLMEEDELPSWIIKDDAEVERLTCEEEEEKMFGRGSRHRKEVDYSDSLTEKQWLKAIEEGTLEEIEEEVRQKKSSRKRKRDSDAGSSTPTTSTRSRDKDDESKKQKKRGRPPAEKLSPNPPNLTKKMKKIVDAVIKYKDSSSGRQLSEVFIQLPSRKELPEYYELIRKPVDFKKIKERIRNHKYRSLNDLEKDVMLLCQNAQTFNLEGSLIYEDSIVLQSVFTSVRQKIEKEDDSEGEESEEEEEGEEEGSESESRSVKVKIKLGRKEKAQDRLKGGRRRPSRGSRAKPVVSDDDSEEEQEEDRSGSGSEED

Take `Cc1ncsc1-c1ccc([C@H](C)NC(=O)[C@@H]2C[C@@H](O)CN2C(=O)[C@@H](c2cc(N3CC4(C3)CN(c3cc5nnc(-c6ccccc6O)cc5n(C)c3=O)C4)no2)C(C)C)cc1` (single isomer, unassigned) [Compound 4]: the DC50 on HiBit-BRM fusion protein is below 10 nM. Also, the Dmax on HiBit-BRM fusion protein was at least 75%; in test [1] it was below 50%.
For `Cc1ncsc1-c1ccc([C@H](C)NC(=O)[C@@H]2C[C@@H](O)CN2C(=O)[C@@H](c2cc(N3CC4(C3)CN(c3ccc5nnc(-c6ccccc6O)cc5n3)C4)no2)C(C)C)cc1` [Compound 1, (2S,4R)-4-hydroxy-1-[(2R)-2-(3-{6-[3-(2-hydroxyphenyl)pyrido[3,2-c]pyridazin-6-yl]-2,6-diazaspiro[3.3]heptan-2-yl}-1,2-oxazol-5-yl)-3-methylbutanoyl]-N-[(1S)-1-[4-(4-methyl-1,3-thiazol-5-yl)phenyl]ethyl]pyrrolidine-2-carboxamide], at HiBit-BRM fusion protein, the DC50 is below 10 nM and the Dmax is at least 75%. Further, in test [1], the Dmax is below 50%.
Regarding `Cc1ncsc1-c1ccc([C@H](C)NC(=O)[C@@H]2C[C@@H](O)CN2C(=O)[C@H](C(C)C)n2cc(-c3ccc4nnc(-c5ccccc5O)cc4n3)nn2)cc1` [Compound 2, (2S,4R)-4-hydroxy-1-[(2S)-2-{4-[3-(2-hydroxyphenyl)pyrido[3,2-c]pyridazin-6-yl]-1,2,3-triazol-1-yl}-3-methylbutanoyl]-N-[(1S)-1-[4-(4-methyl-1,3-thiazol-5-yl)phenyl]ethyl]pyrrolidine-2-carboxamide], the DC50 (on HiBit-BRM fusion protein; in test [1] (read-out: BRMG1 HiBit Degradation DC50)) was below 10 nM throughout. For the same compound, the Dmax (at HiBit-BRM fusion protein; in test [1]) was at least 75% each time.
The compound `Cc1nc2cc(-c3ccccc3O)nnc2cc1N1CC2(CN(c3cc([C@H](C(=O)N4C[C@H](O)C[C@H]4C(=O)N[C@@H](C)c4ccc(-c5scnc5C)cc4)C(C)C)on3)C2)C1` [Compound 3, (2S,4R)-4-hydroxy-1-[(2R)-2-(3-{6-[3-(2-hydroxyphenyl)-6-methylpyrido[3,2-c]pyridazin-7-yl]-2,6-diazaspiro[3.3]heptan-2-yl}-1,2-oxazol-5-yl)-3-methylbutanoyl]-N-[(1S)-1-[4-(4-methyl-1,3-thiazol-5-yl)phenyl]ethyl]pyrrolidine-2-carboxamide] returned a DC50 on HiBit-BRM fusion protein below 10 nM. Also, the results for the Dmax (at HiBit-BRM fusion protein; in test [1]) were at least 75% and below 50%, respectively.
